Residue numbers refer to the chain shown, from its start. Activity calls are given as the source filed them. No cut-off for these calls is given here.
What was measured:
[1] = molecular target: T1, Muscarinic receptor M1 and M2 (Rattus norvegicus, UniProt P08482+P10980); assay: Compound was evaluated for its inhibition of [3H]quinuclidinyl benzilate binding to label antagonist site (RQNB) in rat neocortex
T1 sequence (P08482 whole entry): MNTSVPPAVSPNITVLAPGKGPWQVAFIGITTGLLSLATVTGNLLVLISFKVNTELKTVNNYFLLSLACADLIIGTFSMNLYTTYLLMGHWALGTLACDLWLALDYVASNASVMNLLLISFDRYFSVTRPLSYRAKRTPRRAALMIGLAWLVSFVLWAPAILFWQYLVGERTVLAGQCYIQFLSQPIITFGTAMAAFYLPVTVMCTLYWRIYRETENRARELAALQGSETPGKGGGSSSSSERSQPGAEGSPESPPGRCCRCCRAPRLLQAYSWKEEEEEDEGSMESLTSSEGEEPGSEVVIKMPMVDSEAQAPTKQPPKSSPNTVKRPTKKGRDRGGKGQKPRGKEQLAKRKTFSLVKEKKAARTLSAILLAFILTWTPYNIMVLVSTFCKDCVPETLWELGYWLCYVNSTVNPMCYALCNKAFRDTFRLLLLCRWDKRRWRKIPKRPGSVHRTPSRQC
T1 sequence (P10980 whole entry): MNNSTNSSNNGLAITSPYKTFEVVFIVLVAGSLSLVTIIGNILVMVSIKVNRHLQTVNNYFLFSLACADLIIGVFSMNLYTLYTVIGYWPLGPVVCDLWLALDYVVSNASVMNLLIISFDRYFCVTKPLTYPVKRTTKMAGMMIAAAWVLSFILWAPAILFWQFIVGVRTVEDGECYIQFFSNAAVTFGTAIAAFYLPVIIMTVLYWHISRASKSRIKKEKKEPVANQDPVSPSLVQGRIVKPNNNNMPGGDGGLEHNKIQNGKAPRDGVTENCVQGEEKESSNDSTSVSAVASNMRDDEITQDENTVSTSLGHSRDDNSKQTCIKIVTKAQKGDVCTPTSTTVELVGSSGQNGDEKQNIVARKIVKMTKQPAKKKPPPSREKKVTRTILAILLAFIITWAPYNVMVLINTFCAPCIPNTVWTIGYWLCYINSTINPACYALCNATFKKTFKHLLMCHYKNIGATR

[2] = molecular target: Muscarinic acetylcholine receptor; assay: Compound was evaluated for inhibition of [3H]cis-methyldioxolane binding to label agonist sites (RCMD) in rat neocortex
[3] = molecular target: T2, Muscarinic acetylcholine receptor M2 (Homo sapiens, UniProt P08172); assay: Compound was evaluated for inhibitory activity against human Muscarinic acetylcholine receptor M2 using [3H]quinuclidinyl benzilate to label antagonist site (RQNB) in CHO cells; Not active; format: cell-based
T2 sequence (P08172 whole entry): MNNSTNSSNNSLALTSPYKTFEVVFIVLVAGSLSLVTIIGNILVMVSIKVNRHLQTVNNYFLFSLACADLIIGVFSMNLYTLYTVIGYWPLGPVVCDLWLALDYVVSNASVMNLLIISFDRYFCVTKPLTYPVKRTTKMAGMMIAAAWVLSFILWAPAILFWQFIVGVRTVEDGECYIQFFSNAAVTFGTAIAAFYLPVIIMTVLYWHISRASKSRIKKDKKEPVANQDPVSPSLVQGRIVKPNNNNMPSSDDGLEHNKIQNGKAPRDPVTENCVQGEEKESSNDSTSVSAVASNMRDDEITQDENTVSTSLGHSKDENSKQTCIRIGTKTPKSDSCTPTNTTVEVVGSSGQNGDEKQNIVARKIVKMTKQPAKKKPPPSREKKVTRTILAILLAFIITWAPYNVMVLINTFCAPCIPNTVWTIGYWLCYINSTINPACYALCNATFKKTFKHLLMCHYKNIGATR

[4] = molecular target: T3, Muscarinic acetylcholine receptor M1 (Homo sapiens, UniProt P11229); assay: Compound was evaluated for its inhibitory activity against human Muscarinic acetylcholine receptor M1 using [3H]quinuclidinyl benzilate to label antagonist site (RQNB) in CHO cells; Not active; format: cell-based
T3 sequence (P11229 whole entry): T1 sequence (P08482 whole entry) with V5A, S254T, S309P, K320R, G337A, V413I

[5] = molecular target: T3, Muscarinic acetylcholine receptor M1; assay: Compound was evaluated for its inhibitory activity against human Muscarinic acetylcholine receptor M1 using [3H]quinuclidinyl benzilate to label antagonist site (RQNB) in CHO cells; NA=Not active; format: cell-based
[6] = molecular target: T2, Muscarinic acetylcholine receptor M2; assay: Compound was evaluated for inhibitory activity against human Muscarinic acetylcholine receptor M2 using [3H]quinuclidinyl benzilate to label antagonist site (RQNB) in CHO cells; NA: Not active; format: cell-based
[7] = molecular target: Muscarinic acetylcholine receptors; M1 & M2 (Homo sapiens) (UniProt P11229+P08172); assay: Selectivity ratio for m1 over m2 muscarinic receptors was determined; NA=Not active; format: protein assay
Chain of Muscarinic acetylcholine receptors; M1 & M2 (Homo sapiens) (P11229 whole entry, looked up, one chain of several): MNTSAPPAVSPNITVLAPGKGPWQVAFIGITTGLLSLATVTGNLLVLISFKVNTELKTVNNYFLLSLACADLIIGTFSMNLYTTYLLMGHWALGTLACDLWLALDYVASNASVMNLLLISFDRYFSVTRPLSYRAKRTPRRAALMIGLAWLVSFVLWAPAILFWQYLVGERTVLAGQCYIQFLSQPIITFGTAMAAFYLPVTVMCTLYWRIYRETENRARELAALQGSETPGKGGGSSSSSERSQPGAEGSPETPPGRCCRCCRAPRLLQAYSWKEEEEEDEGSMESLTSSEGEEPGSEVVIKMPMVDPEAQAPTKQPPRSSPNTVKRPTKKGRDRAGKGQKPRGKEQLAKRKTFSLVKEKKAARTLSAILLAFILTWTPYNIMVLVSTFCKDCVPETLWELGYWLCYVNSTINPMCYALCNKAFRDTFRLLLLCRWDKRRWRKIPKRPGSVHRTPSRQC

[8] = molecular target: T3, Muscarinic acetylcholine receptor M1; format: functional, cell-based, CHO
Description: Inhibitory activity against human Muscarinic acetylcholine receptor M1 using [3H]quinuclidinyl benzilate to label antagonist site (RQNB) in CHO cells

[9] = molecular target: T4, Muscarinic acetylcholine receptor M3 (Homo sapiens, UniProt P20309); format: functional, cell-based, SK-N-SH
Target sequence in this assay (P20309 whole entry): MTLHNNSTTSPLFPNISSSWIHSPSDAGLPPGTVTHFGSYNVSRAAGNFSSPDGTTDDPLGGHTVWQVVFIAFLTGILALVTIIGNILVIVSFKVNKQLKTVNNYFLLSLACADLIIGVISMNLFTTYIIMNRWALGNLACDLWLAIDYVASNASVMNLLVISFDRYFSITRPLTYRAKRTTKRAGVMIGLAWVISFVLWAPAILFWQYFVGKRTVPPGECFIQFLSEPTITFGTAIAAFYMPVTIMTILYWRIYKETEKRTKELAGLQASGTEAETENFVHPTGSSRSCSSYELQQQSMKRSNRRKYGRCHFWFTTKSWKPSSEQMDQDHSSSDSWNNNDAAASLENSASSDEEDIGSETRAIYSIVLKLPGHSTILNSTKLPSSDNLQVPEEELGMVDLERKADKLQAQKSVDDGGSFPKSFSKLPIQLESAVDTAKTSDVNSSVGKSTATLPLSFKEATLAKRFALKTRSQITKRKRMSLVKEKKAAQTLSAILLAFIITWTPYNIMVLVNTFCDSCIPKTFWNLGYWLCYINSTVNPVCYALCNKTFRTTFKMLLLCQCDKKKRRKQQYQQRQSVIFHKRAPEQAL
Description: Effective concentration for MIPA (muscarinic-stimulated inositol phosphate accumulation) activity in SK-N-SH neuroblastoma cells expressing human muscarinic M3 receptor

[10] = molecular target: T2, Muscarinic acetylcholine receptor M2; assay: Inhibitory activity against human Muscarinic acetylcholine receptor M2 using [3H]quinuclidinyl benzilate to label antagonist site (RQNB) in CHO cells; format: cell-based
[11] = molecular target: T4, Muscarinic acetylcholine receptor M3; assay: Evaluated for its MIPA (muscarinic-stimulated inositol phosphate accumulation) activity measured in SK-N-SH neuroblastoma cells expressing human muscarinic m3 receptor, compound run at 100 uM;100 uM of carbachol was used; format: functional, cell-based
Target sequence in this assay (P20309 whole entry, looked up): as the sequence (P20309 whole entry) above

[12] = molecular target: T3, Muscarinic acetylcholine receptor M1; format: functional, cell-based, CHO; remark: listed apart in the source
Description: Effective concentration for HMPA (human muscarinic inositol phosphate accumulation) activity measured in CHO cells expressing Muscarinic acetylcholine receptor M1

[13] = molecular target: T5, Muscarinic acetylcholine receptor M1 (Homo sapiens) (UniProt P11229); conditions: CHO; at 100 µM
T5 sequence (whole entry): T1 sequence (P08482 whole entry) with V5A, S254T, S309P, K320R, G337A, V413I
Description: Evaluated for its HMPA (human muscarinic inositol phosphate accumulation) activity measured in CHO cells expressing Muscarinic acetylcholine receptor M1 compound run at 100 uM

[14] = molecular target: T4, Muscarinic acetylcholine receptor M3; assay: Evaluated for its MIPA (muscarinic-stimulated inositol phosphate accumulation) activity measured in SK-N-SH neuroblastoma cells expressing human m3 receptor, compound run at 100 uM;100 uM of carbachol was used; format: functional, cell-based
Target sequence in this assay (P20309 whole entry, looked up): as the sequence (P20309 whole entry) above

[15] = molecular target: T2, Muscarinic acetylcholine receptor M2; assay: Compound was evaluated for inhibitory activity for Muscarinic acetylcholine receptor M2 using [3H]quinuclidinyl benzilate to label antagonist site (RQNB) in CHO cells; format: cell-based

For `O/N=C1\CN2CCC1C2` (stereo not drawn), the IC50 [1] was over 1 µM, the IC50 [2] was over 0.1 µM and the IC50 [3] was “Not Active”. The IC50 [4] was “Not Active”.
With `C#CCCCO/N=C1\CN2CCC1C2` (stereo not drawn) the IC50 [5] was “Not Active”, the IC50 [1] was 3.655 µM and the IC50 [6] was “Not Active”. The IC50 [2] was 0.111 µM and the Ratio [7] was “inactive”.
In the case of `CO/N=C1\CN2CCC1C2` (stereo not drawn), the IC50 [8] is reported as 85 µM, the EC50 [9] is reported as 14.6 µM and the IC50 [1] is reported as 24.558 µM. For the same molecule, the IC50 [10] was 7.89 µM and the CCh [11] was 53%.
`CCC#CCO/N=C1\CN2CCC1C2` (stereo not drawn) gave an IC50 [8] of 4.9 µM, an EC50 [9] of 9.6 µM and an IC50 [1] of 5.976 µM. It also gave an IC50 [10] of 8.6 µM, a CCh [11] of 56% and an IC50 [2] of 0.0036 µM. For the same molecule, the EC50 [12] was 5.9 µM and the CCh [13] was 72%.
In the case of `CCCO/N=C1\CN2CCC1C2` (stereo not drawn), the IC50 [8] is reported as 3.68 µM, the IC50 [1] is reported as 0.032 µM and the IC50 [10] is reported as 3.98 µM. It also gave a CCh [11] of 3%, an IC50 [2] of 0.12 µM and an EC50 [12] of 27 µM. The CCh [13] was 44%.
`C#C/C=C/CO/N=C1\CN2CCC1C2` (stereo not drawn) was tested, and the IC50 [8] was 12.6 µM, the IC50 [1] was 13.85 µM and the IC50 [10] was 30.2 µM.
`CC#CCO/N=C1\CN2CCC1C2` (stereo not drawn) showed an IC50 [8] of 5.81 µM, an EC50 [9] of 8.8 µM and an IC50 [1] of 4.214 µM. For the same molecule, the IC50 [10] was 1.7 µM, the IC50 [2] was 0.004 µM and the CCh [14] was 49%. The EC50 [12] was 1.9 µM and the CCh [13] was 63%.
In the case of `C#CCCO/N=C1\CN2CCC1C2` (stereo not drawn), the IC50 [8] is reported as 14.5 µM, the IC50 [1] is reported as 9.806 µM and the IC50 [10] is reported as 15.6 µM. For the same molecule, the IC50 [2] was 0.083 µM.
Molecule `Nc1noc(C2CN3CCC2C3)n1` (stereo not drawn) [OXADIAZOLE] has an IC50 [8] of 0.4 µM, an EC50 [9] of 104 µM and an IC50 [1] of 0.088 µM. It also gave an IC50 [10] of 0.02 µM, a CCh [11] of 0.269% and an IC50 [2] of 0.0003 µM. For the same molecule, the EC50 [12] was 100 µM and the CCh [13] was 293%.
Work on `COCC#CCO/N=C1\CN2CCC1C2` (stereo not drawn) yielded an IC50 [8] of 42.4 µM, an IC50 [1] of 35.434 µM and an IC50 [10] of 59.3 µM. For the same molecule, the IC50 [2] was 0.055 µM.
`CC#CCC#CCO/N=C1\CN2CCC1C2` (stereo not drawn) showed an IC50 [8] of 5.68 µM, an IC50 [1] of 2.914 µM and an IC50 [10] of 5.08 µM. It also gave a CCh [11] of 2%, an IC50 [2] of 0.039 µM and an EC50 [12] of 5.05 µM. The CCh [13] was 81%.
In the case of `CC(C)(C)O/N=C1\CN2CCC1C2` (stereo not drawn), the IC50 [8] is reported as 3.84 µM, the IC50 [1] is reported as 3.54 µM and the IC50 [10] is reported as 4.46 µM. For the same molecule, the IC50 [2] was 0.091 µM.
For `CCCC#CCO/N=C1\CN2CCC1C2` (stereo not drawn), the IC50 [8] was 9.64 µM, the IC50 [1] was 8.689 µM and the IC50 [2] was 0.048 µM. For the same molecule, the IC50 [15] was 20.6 µM.
`C#CC(C)O/N=C1\CN2CCC1C2` (stereo not drawn) showed an IC50 [8] of 3.69 µM, an IC50 [1] of 3.984 µM and an IC50 [10] of 5.28 µM. For the same molecule, the IC50 [2] was 0.035 µM.
In the case of `CCO/N=C1\CN2CCC1C2` (stereo not drawn), the EC50 [9] is reported as 8.9 µM, the IC50 [1] is reported as 3.112 µM and the CCh [11] is reported as 19%. The IC50 [2] was 0.0125 µM.
`C#CCO/N=C1\CN2CCC1C2` (stereo not drawn) was tested, and the IC50 [8] was 9.51 µM, the EC50 [9] was 8.4 µM and the IC50 [1] was 4.359 µM. The IC50 [10] was 1.04 µM, the CCh [11] was 51% and the EC50 [12] was 0.89 µM. It also gave a CCh [13] of 104%.
For `C[N+](C)(C)CC#CCOC(=O)Nc1cccc(Cl)c1.[Cl-]`, the IC50 [8] was 4 µM, the IC50 [1] was 5.304 µM and the IC50 [10] was 12.9 µM. The IC50 [2] was 0.025 µM, the CCh [14] was 3% and the EC50 [12] was 3.5 µM. For the same molecule, the CCh [13] was 57%.
Work on `CCCCC#CCO/N=C1\CN2CCC1C2` (stereo not drawn) yielded an IC50 [8] of 7.89 µM, an IC50 [1] of 6.045 µM and an IC50 [10] of 9.65 µM. It also gave an IC50 [2] of 0.044 µM.
Work on `C#CCC#CCO/N=C1\CN2CCC1C2` (stereo not drawn) yielded an IC50 [8] of 10 µM, an EC50 [9] of 16.4 µM and an IC50 [1] of 8.834 µM. It also gave an IC50 [10] of 2.84 µM, a CCh [11] of 14% and an EC50 [12] of 4.7 µM. For the same molecule, the CCh [13] was 79%.
`C(#Cc1ccccc1)CO/N=C1\CN2CCC1C2` (stereo not drawn) gave an IC50 [8] of 5.42 µM, an IC50 [1] of 5.012 µM and an IC50 [10] of 25.8 µM. The CCh [11] was 11%, the EC50 [12] was 3.3 µM and the CCh [13] was 76%.
`C1CC(O/N=C2\CN3CCC2C3)C1` (stereo not drawn) showed an IC50 [8] of 1.11 µM, an IC50 [1] of 1.156 µM and an IC50 [10] of 1.63 µM. For the same molecule, the IC50 [2] was 0.088 µM.
In the case of `C=CCC#CCO/N=C1\CN2CCC1C2` (stereo not drawn), the IC50 [8] is reported as 9.44 µM, the IC50 [1] is reported as 7.313 µM and the IC50 [10] is reported as 15.9 µM. For the same molecule, the IC50 [2] was 0.032 µM.
Work on `C#CCC#CCC#CCO/N=C1\CN2CCC1C2` (stereo not drawn) yielded an IC50 [8] of 2.03 µM, an IC50 [1] of 0.958 µM and an IC50 [10] of 2.18 µM. The CCh [11] was 0%, the EC50 [12] was 5.1 µM and the CCh [13] was 50%.
In the case of `CC(C)O/N=C1\CN2CCC1C2` (stereo not drawn), the IC50 [8] is reported as 2.61 µM, the IC50 [1] is reported as 2.03 µM and the IC50 [10] is reported as 3.15 µM. For the same molecule, the IC50 [2] was 0.046 µM.

Reference: ChEMBL document CHEMBL1150001, “A rationale for the design and synthesis of m1 selective muscarinic agonists” (Bioorg Med Chem Lett, 1992)
